In patent publication US20240415914A1, “Water Dispersible Cannabinoid Compositions” (priority 2021, published 2024):

Assay: Stability of cannabinoid and Vitamin E components of Beverage 1 (AB White) stored at 8° C. and 21-25° C., LCMSMS over 570 days
Type: physicochemical
Conditions: for Chemical stability over the entire period (result in words): AB White, 570 days; for Stability in AB White, 8° C. (content by LCMSMS): beverage stored at 8° C.; for Stability in AB White, 21-25° C. (content by LCMSMS): beverage stored at 21-25° C.
Protocol: The LCMSMS was calibrated for 0-1000 ng/ml cannabinoids with the same resin material used in the preparation of the concentrates. At each time period, 100 ml of beverage was diluted with 10 ml of methanol and injected into the LCMSMS for analysis.

CCCCCc1cc(O)c2c(c1)OC(C)(C)[C@@H]1CCC(C)=C[C@@H]21 [D9 THC, delta-9-tetrahydrocannabinol, reference compound]
Chemical stability over the entire period (result in words) (stored at 8° C.): high degree of stability | Chemical stability over the entire period (result in words) (stored at 21-25° C.): high degree of stability | Stability in AB White, 8° C. (content by LCMSMS) (day 0): 12.2 µg/mL | Stability in AB White, 8° C. (content by LCMSMS) (day 1): 12.20 µg/mL | Stability in AB White, 8° C. (content by LCMSMS) (day 2): 11.91 µg/mL | Stability in AB White, 8° C. (content by LCMSMS) (day 3): 12.25 µg/mL | Stability in AB White, 8° C. (content by LCMSMS) (day 5): 12.11 µg/mL | Stability in AB White, 8° C. (content by LCMSMS) (day 8): 11.83 µg/mL | Stability in AB White, 8° C. (content by LCMSMS) (day 9): 12.14 µg/mL | Stability in AB White, 8° C. (content by LCMSMS) (day 10): 12.07 µg/mL | Stability in AB White, 8° C. (content by LCMSMS) (day 11): 11.83 µg/mL | Stability in AB White, 8° C. (content by LCMSMS) (day 12): 11.88 µg/mL | Stability in AB White, 8° C. (content by LCMSMS) (day 15): 12.08 µg/mL | Stability in AB White, 8° C. (content by LCMSMS) (day 16): 12.18 µg/mL | Stability in AB White, 8° C. (content by LCMSMS) (day 17): 12.05 µg/mL | Stability in AB White, 8° C. (content by LCMSMS) (day 18): 12.00 µg/mL | Stability in AB White, 8° C. (content by LCMSMS) (day 19): 12.11 µg/mL | Stability in AB White, 8° C. (content by LCMSMS) (day 22): 11.97 µg/mL | Stability in AB White, 8° C. (content by LCMSMS) (day 23): 12.03 µg/mL | Stability in AB White, 8° C. (content by LCMSMS) (day 24): 11.87 µg/mL | Stability in AB White, 8° C. (content by LCMSMS) (day 25): 11.99 µg/mL | Stability in AB White, 8° C. (content by LCMSMS) (day 26): 11.97 µg/mL | Stability in AB White, 8° C. (content by LCMSMS) (day 29): 12.25 µg/mL | Stability in AB White, 8° C. (content by LCMSMS) (day 30): 12.05 µg/mL | Stability in AB White, 8° C. (content by LCMSMS) (day 60): 11.77 µg/mL | Stability in AB White, 8° C. (content by LCMSMS) (day 90): 11.92 µg/mL | Stability in AB White, 8° C. (content by LCMSMS) (day 120): 11.79 µg/mL | Stability in AB White, 8° C. (content by LCMSMS) (day 150): 12.07 µg/mL | Stability in AB White, 8° C. (content by LCMSMS) (day 180): 11.66 µg/mL | Stability in AB White, 8° C. (content by LCMSMS) (day 210): 11.79 µg/mL | Stability in AB White, 8° C. (content by LCMSMS) (day 240): 11.70 µg/mL | Stability in AB White, 8° C. (content by LCMSMS) (day 270): 11.98 µg/mL | Stability in AB White, 8° C. (content by LCMSMS) (day 300): 11.70 µg/mL | Stability in AB White, 8° C. (content by LCMSMS) (day 330): 11.68 µg/mL | Stability in AB White, 8° C. (content by LCMSMS) (day 360): 11.88 µg/mL | Stability in AB White, 8° C. (content by LCMSMS) (day 390): 11.85 µg/mL | Stability in AB White, 8° C. (content by LCMSMS) (day 420): 11.77 µg/mL | Stability in AB White, 8° C. (content by LCMSMS) (day 450): 11.80 µg/mL | Stability in AB White, 8° C. (content by LCMSMS) (day 480): 11.60 µg/mL | Stability in AB White, 8° C. (content by LCMSMS) (day 510): 11.33 µg/mL | Stability in AB White, 8° C. (content by LCMSMS) (day 540): 11.27 µg/mL | Stability in AB White, 8° C. (content by LCMSMS) (day 570): 11.21 µg/mL | Stability in AB White, 21-25° C. (content by LCMSMS) (day 0): 12.2 µg/mL | Stability in AB White, 21-25° C. (content by LCMSMS) (day 1): 11.8 µg/mL | Stability in AB White, 21-25° C. (content by LCMSMS) (day 2): 12.0 µg/mL | Stability in AB White, 21-25° C. (content by LCMSMS) (day 3): 11.9 µg/mL | Stability in AB White, 21-25° C. (content by LCMSMS) (day 5): 12.1 µg/mL | Stability in AB White, 21-25° C. (content by LCMSMS) (day 8): 12.3 µg/mL | Stability in AB White, 21-25° C. (content by LCMSMS) (day 9): 11.8 µg/mL | Stability in AB White, 21-25° C. (content by LCMSMS) (day 10): 11.7 µg/mL | Stability in AB White, 21-25° C. (content by LCMSMS) (day 11): 12.1 µg/mL | Stability in AB White, 21-25° C. (content by LCMSMS) (day 12): 11.9 µg/mL | Stability in AB White, 21-25° C. (content by LCMSMS) (day 15): 12.1 µg/mL | Stability in AB White, 21-25° C. (content by LCMSMS) (day 16): 12.1 µg/mL | Stability in AB White, 21-25° C. (content by LCMSMS) (day 17): 11.9 µg/mL | Stability in AB White, 21-25° C. (content by LCMSMS) (day 18): 11.8 µg/mL | Stability in AB White, 21-25° C. (content by LCMSMS) (day 19): 12.3 µg/mL | Stability in AB White, 21-25° C. (content by LCMSMS) (day 22): 11.9 µg/mL | Stability in AB White, 21-25° C. (content by LCMSMS) (day 23): 12.0 µg/mL | Stability in AB White, 21-25° C. (content by LCMSMS) (day 24): 12.1 µg/mL | Stability in AB White, 21-25° C. (content by LCMSMS) (day 25): 12.3 µg/mL | Stability in AB White, 21-25° C. (content by LCMSMS) (day 26): 12.1 µg/mL | Stability in AB White, 21-25° C. (content by LCMSMS) (day 29): 11.9 µg/mL | Stability in AB White, 21-25° C. (content by LCMSMS) (day 30): 11.9 µg/mL | Stability in AB White, 21-25° C. (content by LCMSMS) (day 60): 11.9 µg/mL | Stability in AB White, 21-25° C. (content by LCMSMS) (day 90): 12.0 µg/mL | Stability in AB White, 21-25° C. (content by LCMSMS) (day 120): 11.7 µg/mL | Stability in AB White, 21-25° C. (content by LCMSMS) (day 150): 11.7 µg/mL | Stability in AB White, 21-25° C. (content by LCMSMS) (day 180): 11.9 µg/mL | Stability in AB White, 21-25° C. (content by LCMSMS) (day 210): 11.4 µg/mL | Stability in AB White, 21-25° C. (content by LCMSMS) (day 240): 11.7 µg/mL | Stability in AB White, 21-25° C. (content by LCMSMS) (day 270): 11.9 µg/mL | Stability in AB White, 21-25° C. (content by LCMSMS) (day 300): 12.0 µg/mL | Stability in AB White, 21-25° C. (content by LCMSMS) (day 330): 11.4 µg/mL | Stability in AB White, 21-25° C. (content by LCMSMS) (day 360): 11.7 µg/mL | Stability in AB White, 21-25° C. (content by LCMSMS) (day 390): 11.4 µg/mL | Stability in AB White, 21-25° C. (content by LCMSMS) (day 420): 11.7 µg/mL | Stability in AB White, 21-25° C. (content by LCMSMS) (day 450): 11.7 µg/mL | Stability in AB White, 21-25° C. (content by LCMSMS) (day 480): 11.2 µg/mL | Stability in AB White, 21-25° C. (content by LCMSMS) (day 510): 11.2 µg/mL | Stability in AB White, 21-25° C. (content by LCMSMS) (day 540): 11.2 µg/mL | Stability in AB White, 21-25° C. (content by LCMSMS) (day 570): 11.2 µg/mL
